The values below come from publication PMC6704710, “Preclinical evaluation of 3D185, a novel potent inhibitor of FGFR1/2/3 and CSF-1R, in FGFR-dependent and macrophage-dominant cancer models” (Journal of Experimental & Clinical Cancer Research : CR, 2019).

pIC50: −log10 of the molar value. Some results are limits rather than exact numbers.

What all share (assay): Eurofins kinase panel
Holding throughout (type): biochemical

In one assay the target is T1, IRE1(h) (Homo sapiens, UniProt O75460).
T1 construct: purchased Eurofins (KinaseProfiler)
As to conditions: read-out: Inhibition rate (%).

A further assay addresses T2, BTK(h) (Homo sapiens, UniProt Q06187).
T2 construct: purchased Eurofins (KinaseProfiler)
As to conditions: read-out: Inhibition rate (%).

A further assay concerns the target FGFR2(h) (Homo sapiens, UniProt P21802).
The next assay has as its target T3, Wee1(h) (Homo sapiens, UniProt P30291).
T3 construct: purchased Eurofins (KinaseProfiler)
The note with it: read-out: Inhibition rate (%).

Another assay deals with T4, ASK1(h) (Homo sapiens, UniProt Q99683).
T4 construct: purchased Eurofins (KinaseProfiler)
T4 sequence (Q99683 1-1374): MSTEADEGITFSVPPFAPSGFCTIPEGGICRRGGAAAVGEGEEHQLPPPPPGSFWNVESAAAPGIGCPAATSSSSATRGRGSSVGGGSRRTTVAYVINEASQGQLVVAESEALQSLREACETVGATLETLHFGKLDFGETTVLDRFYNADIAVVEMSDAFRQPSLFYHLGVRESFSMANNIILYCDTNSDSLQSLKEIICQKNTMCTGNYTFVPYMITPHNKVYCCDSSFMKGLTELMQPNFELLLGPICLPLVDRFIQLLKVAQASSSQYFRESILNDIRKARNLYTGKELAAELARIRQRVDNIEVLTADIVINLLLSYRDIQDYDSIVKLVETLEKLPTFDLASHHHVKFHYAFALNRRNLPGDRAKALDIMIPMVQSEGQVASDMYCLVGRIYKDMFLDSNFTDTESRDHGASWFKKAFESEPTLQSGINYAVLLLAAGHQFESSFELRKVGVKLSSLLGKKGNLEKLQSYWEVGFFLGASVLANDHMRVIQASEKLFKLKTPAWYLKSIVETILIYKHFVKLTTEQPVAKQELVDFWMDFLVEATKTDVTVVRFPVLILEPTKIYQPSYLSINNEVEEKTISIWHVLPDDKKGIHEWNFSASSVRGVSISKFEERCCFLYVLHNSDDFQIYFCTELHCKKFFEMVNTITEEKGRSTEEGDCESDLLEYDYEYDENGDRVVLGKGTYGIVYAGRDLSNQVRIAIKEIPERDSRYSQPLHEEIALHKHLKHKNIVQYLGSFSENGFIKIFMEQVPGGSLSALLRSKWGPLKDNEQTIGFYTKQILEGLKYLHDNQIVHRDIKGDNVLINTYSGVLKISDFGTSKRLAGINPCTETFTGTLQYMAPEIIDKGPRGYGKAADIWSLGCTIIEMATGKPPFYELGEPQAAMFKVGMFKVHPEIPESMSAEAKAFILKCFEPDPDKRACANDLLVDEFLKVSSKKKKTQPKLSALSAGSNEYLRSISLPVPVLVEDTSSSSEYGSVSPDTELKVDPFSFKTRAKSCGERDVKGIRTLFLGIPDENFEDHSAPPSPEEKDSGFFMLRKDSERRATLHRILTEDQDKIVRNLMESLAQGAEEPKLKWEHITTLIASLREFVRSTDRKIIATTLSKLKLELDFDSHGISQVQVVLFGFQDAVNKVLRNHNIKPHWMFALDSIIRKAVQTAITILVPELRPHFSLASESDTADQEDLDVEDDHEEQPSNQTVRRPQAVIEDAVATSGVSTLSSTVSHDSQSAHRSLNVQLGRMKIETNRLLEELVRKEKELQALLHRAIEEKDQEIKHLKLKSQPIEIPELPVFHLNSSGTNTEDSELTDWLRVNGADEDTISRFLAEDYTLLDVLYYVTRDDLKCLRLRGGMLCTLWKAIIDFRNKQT
As to conditions: read-out: Inhibition rate (%).

A further assay has as its target T5, EphB4(h) (Homo sapiens, UniProt P54760).
T5 construct: purchased Eurofins (KinaseProfiler)
T5 sequence (P54760 16-987): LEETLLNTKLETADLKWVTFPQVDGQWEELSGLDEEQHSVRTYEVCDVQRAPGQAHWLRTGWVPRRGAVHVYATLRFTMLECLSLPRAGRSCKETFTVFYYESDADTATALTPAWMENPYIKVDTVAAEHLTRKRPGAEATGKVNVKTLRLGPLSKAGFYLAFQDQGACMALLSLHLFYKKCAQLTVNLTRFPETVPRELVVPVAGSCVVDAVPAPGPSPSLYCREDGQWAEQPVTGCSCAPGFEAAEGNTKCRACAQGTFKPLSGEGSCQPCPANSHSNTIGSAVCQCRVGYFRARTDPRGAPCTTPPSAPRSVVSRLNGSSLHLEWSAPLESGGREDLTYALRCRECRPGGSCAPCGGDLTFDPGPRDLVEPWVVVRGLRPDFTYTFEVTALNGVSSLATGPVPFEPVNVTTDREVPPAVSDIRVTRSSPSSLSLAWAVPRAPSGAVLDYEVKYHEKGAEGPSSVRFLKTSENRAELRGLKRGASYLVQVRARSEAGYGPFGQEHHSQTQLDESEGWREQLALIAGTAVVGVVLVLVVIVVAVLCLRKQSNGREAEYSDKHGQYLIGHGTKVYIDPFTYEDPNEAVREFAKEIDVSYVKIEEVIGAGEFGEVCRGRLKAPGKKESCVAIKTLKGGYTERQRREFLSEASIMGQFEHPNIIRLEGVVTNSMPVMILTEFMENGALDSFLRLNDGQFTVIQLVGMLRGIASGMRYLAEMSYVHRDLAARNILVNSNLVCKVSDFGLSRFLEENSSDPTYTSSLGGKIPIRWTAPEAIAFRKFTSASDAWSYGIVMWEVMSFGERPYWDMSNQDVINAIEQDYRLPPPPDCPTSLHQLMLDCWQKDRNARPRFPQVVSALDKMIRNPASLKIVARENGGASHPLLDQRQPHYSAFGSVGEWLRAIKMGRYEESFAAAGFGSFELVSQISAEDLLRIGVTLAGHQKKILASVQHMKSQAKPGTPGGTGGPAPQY
The note with it: read-out: Inhibition rate (%).

T3 sequence (P30291 whole entry): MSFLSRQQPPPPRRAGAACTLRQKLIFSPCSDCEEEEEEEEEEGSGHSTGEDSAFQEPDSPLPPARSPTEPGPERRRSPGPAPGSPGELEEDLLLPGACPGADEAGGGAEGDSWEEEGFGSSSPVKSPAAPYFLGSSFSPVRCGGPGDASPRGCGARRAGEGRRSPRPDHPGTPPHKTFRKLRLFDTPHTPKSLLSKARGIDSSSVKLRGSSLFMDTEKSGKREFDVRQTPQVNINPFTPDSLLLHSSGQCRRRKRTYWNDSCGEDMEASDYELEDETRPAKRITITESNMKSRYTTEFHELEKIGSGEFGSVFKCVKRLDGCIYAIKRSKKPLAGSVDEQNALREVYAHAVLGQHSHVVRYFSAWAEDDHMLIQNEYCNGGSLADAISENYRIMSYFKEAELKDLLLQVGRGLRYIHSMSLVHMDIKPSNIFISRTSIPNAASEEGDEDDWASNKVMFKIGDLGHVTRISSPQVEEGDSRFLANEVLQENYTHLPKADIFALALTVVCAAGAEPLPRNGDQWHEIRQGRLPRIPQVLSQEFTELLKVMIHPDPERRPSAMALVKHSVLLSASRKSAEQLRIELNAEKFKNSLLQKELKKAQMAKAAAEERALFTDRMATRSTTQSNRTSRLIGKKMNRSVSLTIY
T1 sequence (O75460 19-977): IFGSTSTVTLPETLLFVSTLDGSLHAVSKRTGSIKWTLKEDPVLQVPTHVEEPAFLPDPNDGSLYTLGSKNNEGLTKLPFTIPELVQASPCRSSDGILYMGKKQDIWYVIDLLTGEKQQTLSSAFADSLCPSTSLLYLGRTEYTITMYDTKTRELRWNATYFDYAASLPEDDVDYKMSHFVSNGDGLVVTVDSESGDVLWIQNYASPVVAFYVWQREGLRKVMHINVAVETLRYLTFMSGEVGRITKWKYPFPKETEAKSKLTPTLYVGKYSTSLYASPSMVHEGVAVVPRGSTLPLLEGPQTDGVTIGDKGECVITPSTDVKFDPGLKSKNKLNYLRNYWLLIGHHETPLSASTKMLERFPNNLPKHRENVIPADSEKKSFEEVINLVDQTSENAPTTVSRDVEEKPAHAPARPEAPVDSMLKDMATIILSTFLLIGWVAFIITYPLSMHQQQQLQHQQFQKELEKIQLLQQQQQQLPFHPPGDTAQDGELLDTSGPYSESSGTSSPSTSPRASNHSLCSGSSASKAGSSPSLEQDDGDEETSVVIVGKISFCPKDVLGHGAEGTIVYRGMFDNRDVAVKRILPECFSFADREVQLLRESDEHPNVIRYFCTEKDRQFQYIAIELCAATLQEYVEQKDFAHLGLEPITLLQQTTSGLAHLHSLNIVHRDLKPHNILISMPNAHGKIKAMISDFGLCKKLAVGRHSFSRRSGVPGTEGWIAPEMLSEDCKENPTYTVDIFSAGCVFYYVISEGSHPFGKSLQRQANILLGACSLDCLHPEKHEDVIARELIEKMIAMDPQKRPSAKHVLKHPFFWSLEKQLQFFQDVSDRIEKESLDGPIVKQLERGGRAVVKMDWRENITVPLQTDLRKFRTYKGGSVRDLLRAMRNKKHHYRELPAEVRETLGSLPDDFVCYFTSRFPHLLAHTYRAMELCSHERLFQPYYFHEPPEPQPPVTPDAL
T2 sequence (Q06187 whole entry): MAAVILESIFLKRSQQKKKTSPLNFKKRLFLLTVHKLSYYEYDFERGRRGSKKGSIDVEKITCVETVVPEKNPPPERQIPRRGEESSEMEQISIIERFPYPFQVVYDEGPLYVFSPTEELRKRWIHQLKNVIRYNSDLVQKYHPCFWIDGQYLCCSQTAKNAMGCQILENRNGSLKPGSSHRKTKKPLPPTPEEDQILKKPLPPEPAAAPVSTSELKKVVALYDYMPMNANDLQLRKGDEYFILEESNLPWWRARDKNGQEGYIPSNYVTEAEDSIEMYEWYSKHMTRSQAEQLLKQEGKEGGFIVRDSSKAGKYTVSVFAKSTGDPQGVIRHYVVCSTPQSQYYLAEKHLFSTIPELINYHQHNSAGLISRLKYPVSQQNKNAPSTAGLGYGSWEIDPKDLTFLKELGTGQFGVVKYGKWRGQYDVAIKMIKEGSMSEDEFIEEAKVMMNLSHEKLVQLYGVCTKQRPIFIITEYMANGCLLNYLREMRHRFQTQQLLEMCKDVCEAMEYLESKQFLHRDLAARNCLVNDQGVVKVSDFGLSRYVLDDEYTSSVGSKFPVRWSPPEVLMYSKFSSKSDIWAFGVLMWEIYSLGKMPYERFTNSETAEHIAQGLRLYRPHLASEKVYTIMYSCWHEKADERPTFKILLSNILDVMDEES
Sequence of FGFR2(h) (P21802 22-821): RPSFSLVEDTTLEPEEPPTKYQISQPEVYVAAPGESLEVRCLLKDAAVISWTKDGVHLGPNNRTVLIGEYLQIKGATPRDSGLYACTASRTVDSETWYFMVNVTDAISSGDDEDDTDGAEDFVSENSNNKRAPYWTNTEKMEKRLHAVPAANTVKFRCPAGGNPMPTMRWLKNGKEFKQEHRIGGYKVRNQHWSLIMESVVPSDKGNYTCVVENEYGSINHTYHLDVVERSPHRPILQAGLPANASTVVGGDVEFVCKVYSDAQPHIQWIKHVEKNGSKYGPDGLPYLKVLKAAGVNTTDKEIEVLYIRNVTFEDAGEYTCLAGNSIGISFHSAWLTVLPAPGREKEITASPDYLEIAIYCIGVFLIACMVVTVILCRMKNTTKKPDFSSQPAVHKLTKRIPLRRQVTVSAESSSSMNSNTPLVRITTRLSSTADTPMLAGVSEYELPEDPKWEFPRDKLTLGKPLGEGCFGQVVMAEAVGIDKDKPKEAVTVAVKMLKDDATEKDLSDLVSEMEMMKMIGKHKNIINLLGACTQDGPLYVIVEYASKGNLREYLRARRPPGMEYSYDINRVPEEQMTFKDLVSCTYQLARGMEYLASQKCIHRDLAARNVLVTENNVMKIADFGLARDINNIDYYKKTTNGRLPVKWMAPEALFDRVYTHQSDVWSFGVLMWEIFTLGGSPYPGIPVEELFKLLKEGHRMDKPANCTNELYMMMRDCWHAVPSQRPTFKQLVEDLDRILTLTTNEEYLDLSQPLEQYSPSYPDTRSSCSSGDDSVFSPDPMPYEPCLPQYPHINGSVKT

Turning to `COc1cc(OC)c(Cl)c(-c2ccc3c(NC(=O)c4ccc(N5CCNC(C)(C)C5)cc4)n[nH]c3n2)c1Cl` [3D185], the inhibition at 0.01 µM at IRE1(h) (10 nM) is -1%; at BTK(h) (10 nM) it was 11%; on FGFR2(h) (read-out: Inhibition rate (%)), 93%; at Wee1(h) (10 nM), -5%; at ASK1(h) (10 nM) it was -6%; on EphB4(h) (10 nM) it was 8%. Further, the inhibition at 0.1 µM on IRE1(h) (100 nM) was -13%; at BTK(h) (100 nM) it was 39%; on FGFR2(h) (read-out: Inhibition rate (%)) it was 98%; at Wee1(h) (100 nM), -16%; at ASK1(h) (100 nM), -7%; at EphB4(h) (100 nM), -5%. For the same compound, the inhibition at 1 µM was 6% at IRE1(h) (1000 nM); 90% at BTK(h) (1000 nM); 100% at FGFR2(h) (read-out: Inhibition rate (%)); 6% on Wee1(h) (1000 nM); -2% at ASK1(h) (1000 nM); 2% at EphB4(h) (1000 nM). Besides, on FGFR2(h) (estimated from 372-kinase panel), the pIC50 is above 8.00.

The term inhibition denotes the relative decrease from the control value, in per cent. In general, pIC50 refers to −log10 of the IC50, conventionally taken in molar units.
